In US11925629B2, “Heterocyclic inhibitors of ERK1 and ERK2 and their use in the treatment of cancer” (Asana Biosciences, LLC, priority 2015, dated 2024):

Legend:
[1] = test system: HCT116 (colorectal carcinoma, K Ras G13D) cells; assay: Cell proliferation (Alamar Blue) assay, HCT116; format: cell-based, human
Protocol: (§1) Cell Proliferation (Alamar Blue) Assay
(§2) HT-29 (colorectal carcinoma, B-RafV600E), HCT116 (colorectal carcinoma, K Ras G13D), A375 (melanoma, B-RafV600E) and SK-Mel2 (melanoma, NRAS Q61R) cells (obtained from ATCC, USA) were seeded (5000 cells/well) in 96-well tissue culture plate and incubated at 37° C./5% CO2 for 16-24 hours. The cells were then treated with compounds, at concentrations typically from 0.0005 to 10 uM prepared in 3-fold serial dilutions. The plates were then incubated for 72 h at 37° C./5% CO2 in a moist environment. Then Alamar Blue™ reagent (final concentration 1×) was added to each well and incubated for 1-3 h at 37° C./5% CO2. The plates were read on fluorescence reader at 540 nm excitation and 590 nm emission wavelengths. The IC50 values were subsequently determined using a sigmoidal dose-response curve (variable slope) using GraphPad Prism® 5 software.

[2] = test system: HT-29 (colorectal carcinoma, B-RafV600E) cells; assay: Cell proliferation (Alamar Blue) assay, HT-29; format: cell-based, human
Protocol: as §1, §2

[3] = Homo sapiens, HCT-116, HCT116 cells
[4] = Homo sapiens, HT-29, HT29 cells

Structure (SMILES) | IC50 [1, 3] | IC50 [2, 4] | IC50 ([1]; HCT116 cells) | IC50 ([2]; HT29 cells)
Cc1cnc(Nc2ccc3c(c2)OCO3)nc1-n1cc(NC(=O)NC(CO)c2cccc(Cl)c2)cn1 (centres unmarked) [Example 37, 1-(1-(2-(benzo[d][1,3]dioxol-5-ylamino)-5-methyl-pyrimidin-4-yl)-1H-pyrazol-4-yl)-3-(1-(3-chlorophenyl)-2-hydroxy-ethyl)urea] | 0.5 to 2.5 µM | > 2.5 µM | – | –
Cc1cnc(NC2CC2)nc1-n1cc(C(=O)NC(CO)c2cccc(Cl)c2)cn1 (centres unmarked) [Example 40, N-(1-(3-chlorophenyl)-2-hydroxy-ethyl)-1-(2-(cyclopropyl-amino)-5-methyl-pyrimidin-4-yl)-1H-pyrazole-4-carboxamide] | > 2.5 µM | > 2.5 µM | – | –
Cc1cnc(Nc2ccc3c(c2)OCO3)nc1-n1cc(C(=O)NC(CO)c2cccc(Cl)c2)cn1 (centres unmarked) [Example 41, 1-(2-(benzo[d][1,3]dioxol-5-ylamino)-5-methyl-pyrimidin-4-yl)-N-(1-(3-chloro-phenyl)-2-hydroxy-ethyl)-1H-pyrazole-4-carboxamide] | > 2.5 µM | > 2.5 µM | – | –
Cc1cnc(Nc2ccc3c(c2)OCO3)nc1-n1cc(NC(=O)N[C@H](CO)c2cccc(Cl)c2)cn1 [Example 44, (S)-1-(1-(2-(benzo[d][1,3]dioxol-5-ylamino)-5-methyl-pyrimidin-4-yl)-1H-pyrazol-4-yl)-3-(1-(3-chloro-phenyl)-2-hydroxy-ethyl)urea] | > 2.5 µM | > 2.5 µM | – | –
Cc1cnc(Nc2ccc(F)cc2Cl)nc1-n1cc(C(=O)NC(CO)c2cccc(Cl)c2)cn1 (centres unmarked) [Example 45, 1-(2-((2-chloro-4-fluorophenyl)amino)-5-methyl-pyrimidin-4-yl)-N-(1-(3-chlorophenyl)-2-hydroxy-ethyl)-1H-pyrazole-4-carboxamide] | > 2.5 µM | > 2.5 µM | – | –
O=C(NC(CO)c1cccc(Cl)c1)c1ccn(-c2ccnc(Nc3ccccc3)c2)c1 (centres unmarked) [Example 46, N-(1-(3-chloro-phenyl)-2-hydroxy-ethyl)-1-(2-(phenyl-amino)pyridin-4-yl)-1H-pyrrole-3-carboxamide] | > 2.5 µM | > 2.5 µM | – | –
O=C(Nc1cnn(-c2ccnc(Nc3ccccc3)c2)c1)N[C@@H](CO)c1cccc(Cl)c1 [Example 49, (R)-1-(1-(3-chloro-phenyl)-2-hydroxy-ethyl)-3-(1-(2-(phenylamino)pyridin-4-yl)-1H-pyrazol-4-yl)urea] | > 2.5 µM | > 2.5 µM | – | –
Cc1cnc(Nc2ccc3c(c2)OCO3)nc1-n1cc(C(=O)N[C@H](CO)c2cccc(Cl)c2)cn1 [Example 50, (S)-1-(2-(benzo[d][1,3]dioxol-5-ylamino)-5-methyl-pyrimidin-4-yl)-N-(1-(3-chloro-phenyl)-2-hydroxy-ethyl)-1H-pyrazole-4-carboxamide] | > 2.5 µM | > 2.5 µM | – | –
Cc1cnc(Nc2ccc3c(c2)OCO3)nc1-n1cc(NC(=O)N[C@@H](CO)c2cccc(Cl)c2)cn1 [Example 51, (R)-1-(1-(2-(benzo[d][1,3]dioxol-5-ylamino)-5-methyl-pyrimidin-4-yl)-1H-pyrazol-4-yl)-3-(1-(3-chloro-phenyl)-2-hydroxy-ethyl)urea] | > 2.5 µM | > 2.5 µM | – | –
Cc1cnc(Nc2ccc(F)cc2Cl)nc1-n1cc(C(=O)NC(CN)c2ccccc2)cn1 (centres unmarked) [Example 54, N-(2-amino-1-phenylethyl)-1-(2-((2-chloro-4-fluoro-phenyl)amino)-5-methyl-pyrimidin-4-yl)-1H-pyrazole-4-carboxamide] | > 2.5 µM | > 2.5 µM | – | –
Cc1cnc(Nc2ccc(F)cc2Cl)nc1-n1ccc(C(=O)N[C@H](CO)c2cccc(Cl)c2)c1 [Example 57, (S)-1-(2-((2-chloro-4-fluorophenyl)-amino)-5-methyl-pyrimidin-4-yl)-N-(1-(3-chlorophenyl)-2-hydroxy-ethyl)-1H-pyrrole-3-carboxamide] | – | – | > 2.5 µM | > 2.5 µM
Cc1cnc(Nc2ccc(F)cc2Cl)cc1-n1ccc(C(=O)NC(CO)c2ccccc2)c1 (centres unmarked) [Example 78, 1-(2-((2-chloro-4-fluorophenyl)amino)-5-methyl-pyridin-4-yl)-N-(2-hydroxy-1-phenylethyl)-1H-pyrrole-3-carboxamide] | > 2.5 µM | > 2.5 µM | – | –
Cc1cnc(Nc2ccc3occc3c2)cc1-n1ccc(C(=O)NC(CO)c2ccccc2)c1 (centres unmarked) [Example 79, 1-(2-(benzo-furan-5-ylamino)-5-methyl-pyridin-4-yl)-N-(2-hydroxy-1-phenylethyl)-1H-pyrrole-3-carboxamide] | > 2.5 µM | > 2.5 µM | – | –
Cc1cnc(Nc2cccnc2)cc1-n1ccc(C(=O)NC(CO)c2ccccc2)c1 (centres unmarked) [Example 81, N-(2-hydroxy-1-phenylethyl)-1-(5-methyl-2-(pyridin-3-ylamino)pyridin-4-yl)-1H-pyrrole-3-carboxamide] | > 2.5 µM | > 2.5 µM | – | –
O=C(NC(CO)c1ccccc1)c1ccn(-c2ccnc(Nc3ccc(F)cc3Cl)c2)c1 (centres unmarked) [Example 82, 1-(2-((2-chloro-4-fluorophenyl)amino)pyridin-4-yl)-N-(2-hydroxy-1-phenylethyl)-1H-pyrrole-3-carboxamide] | > 2.5 µM | > 2.5 µM | – | –
Cc1cnc(Nc2ccc(N3CCNCC3)cc2)cc1-n1ccc(C(=O)NC(CO)c2ccccc2)c1 (centres unmarked) [Example 83, N-(2-hydroxy-1-phenylethyl)-1-(5-methyl-2-((4-(piperazin-1-yl)-phenyl)amino)-pyridin-4-yl)-1H-pyrrole-3-carboxamide] | > 2.5 µM | > 2.5 µM | – | –
O=C(NC(CO)c1ccccc1)c1ccn(-c2ccnc(Nc3ccc(F)cc3)c2)c1 (centres unmarked) [Example 84, 1-(2-((4-fluoro-phenyl)amino)pyridin-4-yl)-N-(2-hydroxy-1-phenyl-ethyl)-1H-pyrrole-3-carboxamide] | > 2.5 µM | > 2.5 µM | – | –
Cc1cnc(Nc2ccc(F)cc2Cl)cc1-n1cnc(C(=O)NC(CO)c2ccccc2)c1 (centres unmarked) [Example 85, 1-(2-((2-chloro-4-fluorophenyl)amino)-5-methyl-pyridin-4-yl)-N-(2-hydroxy-1-phenylethyl)-1H-imidazole-4-carboxamide] | > 2.5 µM | > 2.5 µM | – | –
Cc1cnc(Nc2ccc3c(c2)OCO3)cc1-n1cnc(C(=O)NC(CO)c2cccc(Cl)c2)c1 (centres unmarked) [Example 88, 1-(2-(benzo[d][1,3]dioxol-5-ylamino)-5-methyl-pyridin-4-yl)-N-(1-(3-chloro-phenyl)-2-hydroxy-ethyl)-1H-imidazole-4-carboxamide] | > 2.5 µM | > 2.5 µM | – | –
Cc1cnc(Nc2ccccc2)cc1-n1cnc(C(=O)NC(CO)c2ccccc2)c1 (centres unmarked) [Example 89, N-(2-hydroxy-1-phenylethyl)-1-(5-methyl-2-(phenyl-amino)pyridin-4-yl)-1H-imidazole-4-carboxamide] | > 2.5 µM | > 2.5 µM | – | –
Cc1cnc(Nc2ccc3c(c2)OC(F)(F)O3)cc1-n1cnc(C(=O)NC(CO)c2cccc(Cl)c2)c1 (centres unmarked) [Example 90, N-(1-(3-chlorophenyl)-2-hydroxy-ethyl)-1-(2-((2,2-difluoro-benzo[d][1,3]dioxol-5-yl)amino)-5-methyl-pyridin-4-yl)-1H-imidazole-4-carboxamide] | > 2.5 µM | > 2.5 µM | – | –
Cc1cnc(Nc2ccc3c(c2)OC(F)(F)O3)cc1-n1ccc(C(=O)NC(CO)c2cccc(Cl)c2)c1 (centres unmarked) [Example 92, N-(1-(3-chlorophenyl)-2-hydroxy-ethyl)-1-(2-((2,2-difluoro-benzo[d][1,3]dioxol-5-yl)amino)-5-methyl-pyridin-4-yl)-1H-pyrrole-3-carboxamide] | > 2.5 µM | 0.5 to 2.5 µM | – | –
Cc1cnc(Nc2ccc(F)cc2Cl)nc1-n1ccc(C(=O)N[C@@H](CN(C)C)c2ccccc2)c1 [Example 97, (R)-1-(2-((2-chloro-4-fluorophenyl)amino)-5-methyl-pyrimidin-4-yl)-N-(2-(dimethyl-amino)-1-phenylethyl)-1H-pyrrole-3-carboxamide] | > 2.5 µM | > 2.5 µM | – | –
Cc1cnc(Nc2ccc3c(c2)OC(F)(F)O3)cc1-n1cnc(C(=O)NC(CN)Cc2ccccc2)c1 (centres unmarked) [Example 99, N-(1-amino-3-phenyl-propan-2-yl)-1-(2-((2,2-difluoro-benzo[d][1,3]dioxol-5-yl)amino)-5-methyl-pyridin-4-yl)-1H-imidazole-4-carboxamide] | > 2.5 µM | > 2.5 µM | – | –
Cc1cnc(Nc2cc3c(cc2Cl)OCO3)nc1-n1ccc(C(=O)NC(CO)c2cccc(Cl)c2)c1 (centres unmarked) [Example 101, 1-(2-((6-chloro-benzo[d][1,3]dioxol-5-yl)amino)-5-methyl-pyrimidin-4-yl)-N-(1-(3-chlorophenyl)-2-hydroxy-ethyl)-1H-pyrrole-3-carboxamide] | > 2.5 µM | 0.5 to 2.5 µM | – | –
Cc1cnc(Nc2ccc3c(c2)OCO3)nc1-n1ccc(C(=O)NC(CO)c2cccnc2)c1 (centres unmarked) [Example 103, 1-(2-(benzo[d][1,3]dioxol-5-ylamino)-5-methyl-pyrimidin-4-yl)-N-(2-hydroxy-1-(pyridin-3-yl)ethyl)-1H-pyrrole-3-carboxamide] | > 2.5 µM | > 2.5 µM | – | –
Cc1cnc(Nc2ccc3ocnc3c2)nc1-n1ccc(C(=O)NC(CO)c2ccccc2)c1 (centres unmarked) [Example 104, 1-(2-(benzo[d]oxazol-5-ylamino)-5-methyl-pyrimidin-4-yl)-N-(2-hydroxy-1-phenylethyl)-1H-pyrrole-3-carboxamide] | > 2.5 µM | > 2.5 µM | – | –
Cc1cn(-c2nc(Nc3ccc(F)cc3)ncc2C)cc1C(=O)NC(CO)c1ccccc1 (centres unmarked) [Example 108, 1-(2-((4-fluoro-phenyl)amino)-5-methyl-pyrimidin-4-yl)-N-(2-hydroxy-1-phenylethyl)-4-methyl-1H-pyrrole-3-carboxamide] | > 2.5 µM | > 2.5 µM | – | –
